According to patent publication US20100035926A1, “PYRAZOLE DERIVATIVES AS NON-STEROIDAL GLUCOCORTICOID RECEPTOR LIGANDS” (priority 2006, published 2010):
Read-outs that look alike come from different tables or passages of the source.

Tests used:
GR [1] = target: T1, GR (Homo sapiens, UniProt P04150); experiment: GR Agonist Assay - MMTV Assay (A549 MMTV cells, renilla luciferase reporter); assay type: cell-based; conditions: 6 h, agonists, read-out: average maximum asymptote in the MMTV agonist assay
T1 construct: endogenous in cells; host or cells: A549 (human lung carcinoma, ECACC No. 86012804), stably transfected with reporter plasmids only
T1 sequence (P04150 1-777): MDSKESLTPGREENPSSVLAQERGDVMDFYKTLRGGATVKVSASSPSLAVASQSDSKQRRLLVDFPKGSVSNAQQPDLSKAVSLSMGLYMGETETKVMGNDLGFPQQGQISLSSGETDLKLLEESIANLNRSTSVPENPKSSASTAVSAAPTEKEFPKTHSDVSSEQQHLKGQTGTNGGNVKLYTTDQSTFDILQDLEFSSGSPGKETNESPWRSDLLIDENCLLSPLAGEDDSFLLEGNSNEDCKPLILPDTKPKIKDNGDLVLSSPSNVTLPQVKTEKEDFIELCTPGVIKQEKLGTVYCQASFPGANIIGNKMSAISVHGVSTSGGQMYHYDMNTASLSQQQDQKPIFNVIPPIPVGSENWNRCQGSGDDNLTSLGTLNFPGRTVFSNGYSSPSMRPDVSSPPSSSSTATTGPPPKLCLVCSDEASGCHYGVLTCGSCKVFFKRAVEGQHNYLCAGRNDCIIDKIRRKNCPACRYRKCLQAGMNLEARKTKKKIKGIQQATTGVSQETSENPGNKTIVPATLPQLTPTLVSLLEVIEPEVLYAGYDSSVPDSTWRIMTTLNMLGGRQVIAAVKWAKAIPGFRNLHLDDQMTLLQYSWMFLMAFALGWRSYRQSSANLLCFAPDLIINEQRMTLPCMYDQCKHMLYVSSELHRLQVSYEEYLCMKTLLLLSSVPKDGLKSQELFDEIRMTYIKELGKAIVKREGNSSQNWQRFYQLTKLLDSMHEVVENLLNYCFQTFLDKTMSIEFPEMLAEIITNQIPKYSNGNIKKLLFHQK
In short: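 Stably transfected A549 MMTV cells carry a GR-driven luciferase reporter. Cells at 0.1×10^6/ml in DMEM with 10% FCS and 25 mM HEPES were added to wells containing compound. After detection reagent, plates were held about 15 mins at room temperature and luminescence was read.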

GR [2] = target: T1, GR; experiment: GR Functional Assay - NFκB Assay (A549 SPAP cells, TNFα stimulated); assay type: cell-based; conditions: for Emax: agonists, read-out: average maximum asymptote in the NFkB assay
In short: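 Stably transfected A549 SPAP cells at 0.16×10^6/ml in DMEM with 10% FCS were added to compound and stimulated with TNFα to drive NFκB-dependent SPAP expression. After 1 hr equilibration at room temperature, SPAP was read colorimetrically with pNPP in diethanolamine buffer, pH 9.8.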

Progesterone Receptor = target: T2, Progesterone Receptor (Homo sapiens, UniProt P06401); experiment: Assay for Progesterone Receptor Agonist Activity (CV-1 cells, PRb-BacMam, MMTV-BacMam); assay type: cell-based; conditions: at least once in this assay, read-out: progesterone receptor agonist pEC50 (converted)
T2 construct: expressed in transfected cells; host or cells: CV-1 cells transduced with PRb-BacMam and MMTV-BacMam
T2 sequence (P06401 1-933): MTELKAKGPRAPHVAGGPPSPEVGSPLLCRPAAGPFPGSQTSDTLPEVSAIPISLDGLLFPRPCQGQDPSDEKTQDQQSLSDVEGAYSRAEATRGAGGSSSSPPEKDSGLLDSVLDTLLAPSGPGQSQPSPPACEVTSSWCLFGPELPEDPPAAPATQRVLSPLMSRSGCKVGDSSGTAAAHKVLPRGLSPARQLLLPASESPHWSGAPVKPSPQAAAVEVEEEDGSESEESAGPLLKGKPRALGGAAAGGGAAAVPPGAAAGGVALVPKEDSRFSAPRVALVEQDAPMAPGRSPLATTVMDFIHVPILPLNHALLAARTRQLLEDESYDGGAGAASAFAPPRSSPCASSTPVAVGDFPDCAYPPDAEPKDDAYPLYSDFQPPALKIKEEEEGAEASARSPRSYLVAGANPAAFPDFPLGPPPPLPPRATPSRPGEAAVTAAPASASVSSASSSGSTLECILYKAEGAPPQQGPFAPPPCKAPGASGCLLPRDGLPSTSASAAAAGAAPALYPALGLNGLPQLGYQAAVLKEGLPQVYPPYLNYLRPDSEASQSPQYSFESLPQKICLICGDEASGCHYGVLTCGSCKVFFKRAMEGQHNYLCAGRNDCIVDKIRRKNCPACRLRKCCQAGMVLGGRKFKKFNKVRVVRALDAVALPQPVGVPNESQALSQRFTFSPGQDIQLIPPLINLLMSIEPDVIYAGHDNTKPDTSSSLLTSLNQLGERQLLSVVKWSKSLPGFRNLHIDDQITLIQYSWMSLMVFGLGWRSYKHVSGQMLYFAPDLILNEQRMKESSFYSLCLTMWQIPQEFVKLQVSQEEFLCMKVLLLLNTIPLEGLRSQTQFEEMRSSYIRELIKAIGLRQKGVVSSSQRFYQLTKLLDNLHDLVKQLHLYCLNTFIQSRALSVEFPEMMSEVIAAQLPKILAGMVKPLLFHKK
Procedure: A T225 flask of CV-1 cells at a density of 80% confluency was washed with PBS, detached from the flask using 0.25% trypsin and counted using a Sysmex KX-21N. Cells were diluted in DMEM containing 10% Hyclone, 2 mM […] and 1% Pen/Strep at 140 cells/μl and transduced with 10% PRb-BacMam and 10% MMTV-BacMam. […] of suspension cells were dispensed to each well of white Nunc 384-well plates, containing compounds at the required concentration. After 24 hr 10 μl of Steadylite were added to each well of the plates. Plates were incubated in the dark for 10 min before reading them on a Viewlux reader. Dose response curves were constructed from which pEC50 values were estimated.

glucocorticoid receptor = target: T3, glucocorticoid receptor (Homo sapiens, UniProt P04150); experiment: Glucocorticoid Receptor Binding Assay (fluorescence polarisation, displacement of Alexa 555 labelled dexamethasone derivative); conditions: at least once in this assay; read-out: glucocorticoid binding pIC50 (converted)
T3 construct: a partially purified full length glucocorticoid receptor
T3 sequence (P04150 1-777): T1 sequence (P04150 1-777)
In short: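 Partially purified full-length GR incubated with test compound and fluorescent dexamethasone plus GR-stabilising buffer components, 2 hr at room temperature in the dark. Binding scored as displacement of tracer, read as decrease in fluorescence polarisation.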

[3] = at least once in the NFkB assay, A549 SPAP cells, read-out: pIC50 in the NFkB assay (converted)
[4] = at least once, examples listed as agonists in NFkB and MMTV assays, read-out: potency pIC50 in the NFKB assay (converted)

Row | SMILES | Emax (GR [1]) | Emax (GR [2]; A549 SPAP cells) | IC50 (GR [2]; [3]) | IC50 (GR [2]; [4]) | EC50 (Progesterone Receptor) | IC50 (glucocorticoid receptor)
1 | CCN(CC(O)(CNC(=O)c1cnn(-c2ccc(F)cc2)c1N)C(F)(F)F)C(=O)c1ccccc1C(F)(F)F (racemic) [Example 9 (racemic), 5-amino-N-{2-[(ethyl{[2-(trifluoromethyl)phenyl]carbonyl}amino)methyl]-3,3,3-trifluoro-2-hydroxypropyl}-1-(4-fluorophenyl)-1H-pyrazole-4-carboxamide] | ≥ 40% | ≥ 40% | < 1000 nM | < 316 nM | > 1000 nM | < 1000 nM
2 | CCN(CC(O)(CNC(=O)c1cnn(-c2ccc(F)cc2)c1N)C(F)(F)F)C(=O)c1ccccc1 (racemic) [Example 14 (racemic), 5-amino-N-(2-{[ethyl(phenylcar-bonyl)amino]methyl}-3,3,3-trifluoro-2-hydroxypropyl)-1-(4-fluorophenyl)-1H-pyrazole-4-carboxamide] | ≥ 40% | ≥ 40% | < 1000 nM | < 316 nM | > 1000 nM | < 1000 nM
3 | Nc1c(C(=O)NCC(O)(CN(CCF)C(=O)c2ccccc2Cl)C(F)(F)F)cnn1-c1ccc(F)cc1 (racemic) [Example 15 (racemic), 5-amino-N-(2-{[[(2-chlorophenyl)car-bonyl](2-fluoroethyl)amino]methyl}-3,3,3-trifluoro-2-hydroxypropyl)-1-(4-fluorophenyl)-1H-pyrazole-4-carboxamide] | ≥ 40% | ≥ 40% | < 1000 nM | < 316 nM | > 1000 nM | < 1000 nM
4 | CCN(CC(O)(CNC(=O)c1cnn(-c2ccccc2)c1N)C(F)(F)F)C(=O)c1ccccc1F (racemic) [Example 45 (racemic), 5-amino-N-[2-({ethyl[(2-fluorophenyl)car-bonyl]amino}methyl)-3,3,3-trifluoro-2-hydroxypropyl]-1-phenyl-1H-pyrazole-4-carboxamide] | ≥ 40% | ≥ 40% | < 1000 nM | < 316 nM | > 1000 nM | < 1000 nM
5 | CCN(CC(O)(CNC(=O)c1cnn(-c2ccccc2)c1N)C(F)(F)F)C(=O)c1ccccc1Cl (racemic) [Example 46 (racemic), 5-amino-N-(2-{[[(2-chlorophenyl)car-bonyl](ethyl)amino]methyl}-3,3,3-trifluoro-2-hydroxypropyl)-1-phenyl-1H-pyrazole-4-carboxamide] | ≥ 40% | ≥ 40% | < 1000 nM | < 316 nM | > 1000 nM | < 1000 nM
6 | Nc1c(C(=O)NCC(O)(CN(CCF)C(=O)c2ccccc2F)C(F)(F)F)cnn1-c1ccc(F)cc1 (single isomer, unassigned) [Example 2 Enantiomer 1, 5-Amino-1-(4-fluorophenyl)-N-[3,3,3-trifluoro-2-([(2-fluoroethyl)[(2-fluorophenyl)carbonyl]amino]methyl)-2-hydroxypropyl]-1H-pyrazole-4-carboxamide] | ≥ 40% | ≥ 40% | < 1000 nM | < 316 nM | > 1000 nM | < 1000 nM
7 | CCN(CC(O)(CNC(=O)c1cnn(-c2ccc(F)cc2)c1N)C(F)(F)F)C(=O)c1cccc(F)c1F (single isomer, unassigned) [Example 5 Enantiomer 1, 5-Amino-N-(2-{[[(2,3-difluorophenyl)carbonyl](ethyl)amino]methyl}-3,3,3-trifluoro-2-hydroxypropyl)-1-(4-fluorophenyl)-1H-pyrazole-4-carboxamide] | ≥ 40% | ≥ 40% | < 1000 nM | < 316 nM | > 1000 nM | < 1000 nM
